Test results published in US20050288230A1, “Non-steroidal anti-androgen therapy” (AstraZeneca AB, priority 2002, published 2005).

Columns and labels:
[1] = tested on: patients; experiment: Randomized open-label study: change in BMD by DEXA, bicalutamide 150 mg daily vs medical castration; format: in vivo, human; details: for lumbar spine BMD increase compared to pre-treatment baseline: 150 mg
Protocol: Inclusion criteria for a prospective, multicentre, randomized, open-label, parallel-group study, included: disease stage T1-T4, Nx, and M0 for which immediate hormonal ablation was indicated; and Eastern Cooperative Oncology Group (ECOG) performance status 0 or 1.
Patients were randomized in a 1:1 ratio to receive either bicalutamide 150 mg daily or medical castration with a luteinizing hormone-releasing hormone (LHRH) agonist for 2 years.
Primary efficacy endpoints were percentage change from baseline in BMD measures (lumbar spine and hip) at 96 weeks.
An analysis of covariance (ANCOVA) model was used to analyse the primary efficacy endpoints. Analysis was performed for patients for whom data were available at baseline and at Week 96. Subsidiary analyses were performed, carrying forward the last patient assessment at time points where data were missing. A p value of ≦0.017 was considered statistically significant.
Secondary endpoints included: percentage change in lumbar spine-BMD and hip-BMD from baseline to 24, 48 and 72 weeks.
Secondary efficacy endpoints were also analyzed using an ANCOVA model. BMD were assessed via dual energy X-ray absorptiometry (DEXA).
103 patients were recruited to the study and randomized 1:1 to receive either bicalutamide (R/S racemate) 150 mg (n=51) or medical castration (n=52). • The treatment groups were well balanced at baseline (Table 1). • The median testosterone level at baseline was 414.7 ng/dL in the bicalutamide 150 mg group (n=48) and 477.9 ng/dL in the medical castration group (n=52). • Median baseline values for albumin, total calcium, 25-hydroxy vitamin D, and thyroid-stimulating hormone were similar in the two treatment groups. Bone Mineral Density

[2] = tested on: humans; details: single agent therapy, blood; cited from earlier work
[3] = tested on: patients; details: Casodex 150 monotherapy, preliminary data; cited from earlier work
[4] = tested on: adult men; details: cited from earlier work

| SMILES | lumbar spine BMD increase compared to pre-treatment baseline ([1]; 24 weeks) | lumbar spine BMD increase compared to pre-treatment baseline ([1]; 48 weeks) | lumbar spine BMD increase compared to pre-treatment baseline ([1]; 72 weeks) | BMD compared to baseline (in words) ([1]; in vivo) | basal level of total testosterone [2] | bone mineral density (in words) [3] | testosterone and LH (in words) [4] |
| --- | --- | --- | --- | --- | --- | --- | --- |
| CC(O)(CS(=O)(=O)c1ccc(F)cc1)C(=O)Nc1ccc(C#N)c(C(F)(F)F)c1 (stereo not drawn) [Bicalutamide, 4′-cyano-α′,α′,α′-trifluoro-3-(4-fluorophenylsulphonyl)-2-hydroxy-2-methylpropiono-m-toluidide] | 1.05% | 1.76% | 2.22% | statistically significant increase in BMD compared to baseline | approximate doubling | maintains bone mineral density | – |
| CC/C(=C(\c1ccccc1)c1ccc(OCCN(C)C)cc1)c1ccccc1 [tamoxifen] | – | – | – | – | – | – | increase testosterone and LH |
